Reference: ChEMBL document CHEMBL3885861, “Open TG-GATES”

Species on record: Rattus norvegicus
Assay: Open TG-GATES - Regimen: Daily Repeat
Format: toxicity, organism-based, Sprague-Dawley
Design: regimen Daily Repeat, gender Male, age 6 weeks
Settings: in vivo, po, 0 mg/kg, route gavage, dose level Control; for APTT / Bas / Eos / Fbg / Hb / Ht / Lym / MCH / MCHC / MCV / Mono / Neu / PT / Plat / RBC / Ret / WBC: tissue Blood; for KIDNEY_L / KIDNEY_R / KIDNEY_TOTAL: tissue Kidney; for LIVER: tissue Liver; for A/G / ALP / ALT / AST / BUN / CRE / Ca / Cl / DBIL / GLC / IP / K / LDH / Na / PL / RALB / TBIL / TC / TG / TP / gamma-GTP: tissue Plasma

## CC1=C(CC(=O)O)c2cc(F)ccc2/C1=C\c1ccc([S+](C)[O-])cc1 (configuration not stated)
72 h, time 3 day
  TERMINAL_BW: 233.7 g
  APTT: 16 s
  Bas: 0%
  Eos: 1%
  Fbg: 298.2 mg/dL
  Hb: 14.3 g/dL
  Ht: 42.9%
  Lym: 79%
  MCH: 21.6 pg
  MCHC: 33.3%
  MCV: 64.9 fL
  Mono: 2.2%
  Neu: 17%
  PT: 13.8 s
  Plat: 126.4 x10_4/uL
  RBC: 662.2 x10_4/ul
  Ret: 7.1%
  WBC: 84.9 x10_2/uL
  KIDNEY_L: 1 g
  KIDNEY_R: 1 g
  KIDNEY_TOTAL: 1.9 g
  LIVER: 11.1 g
  A/G: 0.9
  ALP: 1760.4 IU/L
  ALT: 44 IU/L
  AST: 69.4 IU/L
  BUN: 15 mg/dL
  CRE: 0.2 mg/dL
  Ca: 11.2 mg/dL
  Cl: 105.8 meq/L
  DBIL: 0.014 mg/dL
  GLC: 180.6 mg/dL
  IP: 7.5 mg/dL
  K: 4.2 meq/L
  LDH: 73.8 IU/L
  Na: 142 meq/L
  PL: 160.8 mg/dL
  RALB: 2.7 g/dL
  TBIL: 0.02 mg/dL
  TC: 80.4 mg/dL
  TG: 111.6 mg/dL
  TP: 5.6 g/dL
  gamma-GTP: 1 IU/L
[…], time 7 day
  TERMINAL_BW: 270.8 g
  APTT: 16.4 s
  Bas: 0.2%
  Eos: 1%
  Fbg: 306.6 mg/dL
  Hb: 14.4 g/dL
  Ht: 42.3%
  Lym: 81.2%
  MCH: 21.3 pg
  MCHC: 34.1%
  MCV: 62.5 fL
  Mono: 2.6%
  Neu: 14.4%
  PT: 13.6 s
  Plat: 131.7 x10_4/uL
  RBC: 678.6 x10_4/ul
  Ret: 5.9%
  WBC: 91.7 x10_2/uL
  KIDNEY_L: 1.1 g
  KIDNEY_R: 1.1 g
  KIDNEY_TOTAL: 2.1 g
  LIVER: 12.7 g
  A/G: 0.9
  ALP: 1662.6 IU/L
  ALT: 45.2 IU/L
  AST: 69.8 IU/L
  BUN: 16.8 mg/dL
  CRE: 0.2 mg/dL
  Ca: 10.9 mg/dL
  Cl: 104.4 meq/L
  DBIL: 0.012 mg/dL
  GLC: 183 mg/dL
  IP: 7.2 mg/dL
  K: 4.2 meq/L
  LDH: 108.4 IU/L
  Na: 140.4 meq/L
  PL: 177 mg/dL
  RALB: 2.7 g/dL
  TBIL: 0.018 mg/dL
  TC: 94.2 mg/dL
  TG: 120.4 mg/dL
  TP: 5.7 g/dL
  gamma-GTP: 0.8 IU/L
[…], time 14 day
  TERMINAL_BW: 336.8 g
  APTT: 17.6 s
  Bas: 0.2%
  Eos: 1%
  Fbg: 299.8 mg/dL
  Hb: 15.1 g/dL
  Ht: 44.6%
  Lym: 76.8%
  MCH: 20.9 pg
  MCHC: 33.9%
  MCV: 61.5 fL
  Mono: 2.4%
  Neu: 19.6%
  PT: 14.2 s
  Plat: 124.3 x10_4/uL
  RBC: 725.2 x10_4/ul
  Ret: 4.3%
  WBC: 92.8 x10_2/uL
  KIDNEY_L: 1.3 g
  KIDNEY_R: 1.3 g
  KIDNEY_TOTAL: 2.5 g
  LIVER: 14.8 g
  A/G: 0.9
  ALP: 1218 IU/L
  ALT: 38.6 IU/L
  AST: 66.8 IU/L
  BUN: 17.8 mg/dL
  CRE: 0.2 mg/dL
  Ca: 11.1 mg/dL
  Cl: 105.4 meq/L
  DBIL: 0.012 mg/dL
  GLC: 180 mg/dL
  IP: 6 mg/dL
  K: 3.8 meq/L
  LDH: 65.6 IU/L
  Na: 143.6 meq/L
  PL: 163.4 mg/dL
  RALB: 2.8 g/dL
  TBIL: 0.044 mg/dL
  TC: 73.2 mg/dL
  TG: 175.4 mg/dL
  TP: 5.9 g/dL
  gamma-GTP: 1 IU/L
[…], time 28 day
  TERMINAL_BW: 383.5 g
  APTT: 17.9 s
  Bas: 0.2%
  Eos: 1.8%
  Fbg: 282.6 mg/dL
  Hb: 15.2 g/dL
  Ht: 46.1%
  Lym: 79.2%
  MCH: 18.9 pg
  MCHC: 32.9%
  MCV: 57.4 fL
  Mono: 1.8%
  Neu: 16.2%
  PT: 13.2 s
  Plat: 109 x10_4/uL
  RBC: 802.4 x10_4/ul
  Ret: 2.4%
  WBC: 108.9 x10_2/uL
  KIDNEY_L: 1.3 g
  KIDNEY_R: 1.3 g
  KIDNEY_TOTAL: 2.6 g
  LIVER: 14.9 g
  A/G: 0.8
  ALP: 1152 IU/L
  ALT: 35.8 IU/L
  AST: 63.6 IU/L
  BUN: 16.8 mg/dL
  CRE: 0.3 mg/dL
  Ca: 10.3 mg/dL
  Cl: 105 meq/L
  DBIL: 0.012 mg/dL
  GLC: 192.2 mg/dL
  IP: 6.5 mg/dL
  K: 3.6 meq/L
  LDH: 82.8 IU/L
  Na: 142 meq/L
  PL: 128.8 mg/dL
  RALB: 2.7 g/dL
  TBIL: 0.074 mg/dL
  TC: 57.4 mg/dL
  TG: 125.6 mg/dL
  TP: 6 g/dL
  gamma-GTP: 1 IU/L
